Source: US12357650B2, “Methods and compositions for cancer therapies that include delivery of halogenated thymidines and thymidine phosphorlylase inhibitors in combination with radiation” (Shuttle Pharmaceuticals, Inc., priority 2017, dated 2025)
“And” between values parts separate entries of the source, which are not always exact repeats. Equal entries are not always repeated. Where two headings read alike, the source gives them in different places.

Tests used:
[1] = system: DNA of tumors and adjacent normal tissue; settings: small series of patients with head and neck cancers or liver metastases from colorectal cancer; cited from earlier work
[2] = Pharmacokinetic profile of IUdR (20 mg/kg) with and without Tipiracil in rats following single oral administration; format: in vivo, male Sprague-Dawley rats; settings: for Plasma Concentration of Compound A / concentration at 0.083 hr / concentration at 0.25 hr / concentration at 0.5 hr / concentration at 1 hr: PO-20 mg/kg Compound A alone or + 7.9 mg/kg Compound B; for concentration at 0.083 hr / concentration at 0.25 hr / concentration at 0.5 hr / concentration at 1 hr: oral; for AUC(0-t) / Cmax: po
Description: (§1) The purpose of this study was to determine the pharmacokinetics parameters of IUdR in male Sprague-Dawley rats following single oral (PO) administration the IUdR (i.e., Compound A) and Tipiracil (i.e., Compound B).
A control formulation was prepared where Compound A was dissolved in 5% DMSO+95% PBS to yield a final concentration of 2 mg/mL for oral administration. The prepared formulation was colorless clear solution (pH˜8).
A second formulation was prepared where Compound A and Compound B were dissolved in 5% DMSO+95% PBS to yield a final concentration of 2 mg/mL (Compound A) and 0.79 mg/mL (Compound B) for oral administration. The prepared formulation was colorless clear solution (pH˜7).
(§2) Animal Acquisition and Assignment to Study. A total of 8 male experimental Sprague-Dawley Rats were transferred from stock colony, and 6 animals were placed on study.
(§3) Dose Administration. The test article was administered via a single oral administration.
(§4) Sample Collection and Bioanalysis. Blood samples (approximately 200 μL/sample) were collected via jugular vein at Pre-dose and Post-dose (5 min, 15 min, 30 min, 1 h, 2 h, 4 h, 6 h, 8 h and 24 h). Blood samples were placed into tubes containing K2EDTA and centrifuged conditions at 8000 rpm for 6 minutes at 2-8° C. to separate plasma from the samples. Following centrifugation, the resulting plasma were transferred to clean tubes and stored frozen at −80° C. pending bioanalysis.
(§5) Pharmacokinetic Analysis. The PK analysis and interpretation of the results were conducted by Medicilon Preclinical Research (Shanghai) LLC. A non-compartmental module of WinNonlin® Professional was used to calculate parameters. Any BLQs (LLOQ=5.0 ng/mL for Compound A) were omitted when calculate the PK parameters.
(§6) Clinical Observations. No abnormal observations were noted.

[3] = Pharmacokinetic profile of IUdR (100 mg/kg) with and without Tipiracil in rats following single oral administration; format: in vivo, male Sprague-Dawley rats; settings: PO-100 mg/kg Compound A alone or + 7.9 mg/kg Compound B, individual animals, LLOQ 10 ng/mL
Description: as §1
A control formulation was prepared where Compound A was dissolved in 5% DMSO+95% PBS to yield a final concentration of 10 mg/mL for oral administration. The prepared formulation was white suspension (pH˜7).
A second formulation was prepared where Compound A and Compound B were dissolved in 5% DMSO+95% PBS to yield a final concentration of 10 mg/mL (Compound A) and 0.79 mg/mL (Compound B) for oral administration. The prepared formulation was white suspension (pH˜7).
as §2, §3, §4
as §5, with “(LLOQ=10.0” for “(LLOQ=5.0”
as §6

[4] = single oral dose, PO-20 (Compound A) alone or + 7.9 (Compound B) mg/kg, individual animals

O=c1[nH]c(=O)n([C@H]2C[C@H](O)[C@@H](CO)O2)cc1I [Compound A, 5-iodo-2′-deoxyuridine]
% IUdR-DNA incorporation in adjacent normal tissue [1]: less than 1%
% IUdR-DNA incorporation in tumors [1]: ≤ 5%
Plasma Concentration of Compound A ([2]; 0.083 hr, individual animals, LLOQ 5 ng/mL): 25.16 ng/mL and 16.04 ng/mL
Plasma Concentration of Compound A ([2]; 0.25 hr, individual animals, LLOQ 5 ng/mL): 54.67 ng/mL and 56.48 ng/mL
Plasma Concentration of Compound A ([2]; 0.5 hr, individual animals, LLOQ 5 ng/mL): 63.23 ng/mL and 57.34 ng/mL
Plasma Concentration of Compound A ([2]; 1 hr, individual animals, LLOQ 5 ng/mL): 19.19 ng/mL and 21.93 ng/mL
Plasma Concentration of Compound A ([2]; 2 hr, individual animals, LLOQ 5 ng/mL): BLQ
Plasma Concentration of Compound A ([2]; 4 hr, individual animals, LLOQ 5 ng/mL): BLQ
Plasma Concentration of Compound A ([2]; 6 hr, individual animals, LLOQ 5 ng/mL): BLQ
Plasma Concentration of Compound A ([2]; 8 hr, individual animals, LLOQ 5 ng/mL): BLQ
Plasma Concentration of Compound A ([2]; 24 hr, individual animals, LLOQ 5 ng/mL): BLQ
Tmax ([2]; male, Sprague-Dawley, rat, plasma, 20 mg/kg, single oral dose, PO-20 (Compound A) alone or + 7.9 (Compound B) mg/kg, individual animals): 30 min
concentration at 0.083 hr ([2]; male, Sprague-Dawley, rat, plasma, 20 mg/kg, 0.083 hr, group mean, read-out: Plasma Concentration of Compound A, Mean): 21.9 ng/mL
concentration at 0.083 hr ([2]; male, Sprague-Dawley, rat, plasma, 20 mg/kg, 0.083 hr, individual animals, LLOQ 5 ng/mL, read-out: Plasma Concentration of Compound A): 24.5 ng/mL
concentration at 0.25 hr ([2]; male, Sprague-Dawley, rat, plasma, 20 mg/kg, 0.25 hr, group mean, read-out: Plasma Concentration of Compound A, Mean): 49.2 ng/mL
concentration at 0.25 hr ([2]; male, Sprague-Dawley, rat, plasma, 20 mg/kg, 0.25 hr, individual animals, LLOQ 5 ng/mL, read-out: Plasma Concentration of Compound A): 36.5 ng/mL
concentration at 0.5 hr ([2]; male, Sprague-Dawley, rat, plasma, 20 mg/kg, 0.5 hr, group mean, read-out: Plasma Concentration of Compound A, Mean): 57.7 ng/mL
concentration at 0.5 hr ([2]; male, Sprague-Dawley, rat, plasma, 20 mg/kg, 0.5 hr, individual animals, LLOQ 5 ng/mL, read-out: Plasma Concentration of Compound A): 52.5 ng/mL
concentration at 1 hr ([2]; male, Sprague-Dawley, rat, plasma, 20 mg/kg, 1 hr, group mean, read-out: Plasma Concentration of Compound A, Mean): 22.8 ng/mL
concentration at 1 hr ([2]; male, Sprague-Dawley, rat, plasma, 20 mg/kg, 1 hr, individual animals, LLOQ 5 ng/mL, read-out: Plasma Concentration of Compound A): 27.2 ng/mL
AUC(0-t) ([2]; male, Sprague-Dawley, rat, plasma, 20 mg/kg, oral administration, Example 2 (20 mg/kg IUdR, ± 7.9 mg/kg Tipiracil), comparison table, mean, read-out: AUC(0-t) of Compound A): 40.3 ng·h/mL
Cmax ([2]; male, Sprague-Dawley, rat, plasma, 20 mg/kg, oral administration, Example 2 (20 mg/kg IUdR, ± 7.9 mg/kg Tipiracil), comparison table, mean, read-out: Cmax of Compound A): 57.7 ng/mL
AUC(0-t) ([2]; male, Sprague-Dawley, rat, plasma, 20 mg/kg, single oral dose, PO-20 (Compound A) alone or + 7.9 (Compound B) mg/kg, group mean, read-out: AUC(0-t) of Compound A, Mean): 40.3 ng·h/mL
Cmax ([2]; male, Sprague-Dawley, rat, plasma, 20 mg/kg, single oral dose, PO-20 (Compound A) alone or + 7.9 (Compound B) mg/kg, group mean, read-out: Cmax of Compound A, Mean): 57.7 ng/mL
AUC(0-t) ([2]; male, Sprague-Dawley, rat, plasma, 20 mg/kg, single oral dose, PO-20 (Compound A) alone or + 7.9 (Compound B) mg/kg, individual animals, read-out: AUC(0-t) of Compound A): 40.8 ng·h/mL
Cmax ([2]; male, Sprague-Dawley, rat, plasma, 20 mg/kg, single oral dose, PO-20 (Compound A) alone or + 7.9 (Compound B) mg/kg, individual animals, read-out: Cmax of Compound A): 57.3 ng/mL
AUC(0-t) of Compound A [2, 4]: 37.15 ng·h/mL and 43.05 ng·h/mL
Cmax of Compound A [2, 4]: 52.45 ng/mL and 63.23 ng/mL
Plasma Concentration of Compound A ([3]; 0.083 hr): 192.41 ng/mL and 168.24 ng/mL
Plasma Concentration of Compound A ([3]; 0.25 hr): 628.30 ng/mL and 538.67 ng/mL
Plasma Concentration of Compound A ([3]; 0.5 hr): 755.39 ng/mL and 684.80 ng/mL
Plasma Concentration of Compound A ([3]; 1 hr): 596.55 ng/mL and 772.49 ng/mL
